# Source: patent US10513697B2, “CO2 profile cultivation” (Hoffmann-La Roche Inc., priority 2011, dated 2019)
# Assays:
# [1] = test system: hCAII-expressing CHO cell clone E11; experiment: Re-alkalinization experiment (pHi recovery after CO2 acid load, flow cytometry) in hCAII-expressing clone; type: cell-based, Chinese Hamster
# Procedure: pHi measurements were carried out by flow cytometry with the available pHi fluorescent indicator, Carboxy SNARF-1 AM (Molecular Probes Inc.). This dye is an acetoxymethyl (AM) ester that enter the cells readily and is hydrolyzed by non-specific esterases to yield the free fluorescent dye. SNARF-1 AM is very sensitive to pHi changes within the physiological range. It is excited between 488 nm and 530 nm and the fluorescence emission is monitored at two wavelengths, typically about 580 nm (FL2-H) and 640 nm (FL3-H). This is particularly interesting as the fluorescence emission wavelength ratio can be calculated foe a more accurate determination of the pHi. […] Herein the Pseudo-Null calibration method was used. […] A simplification can be considered if the calibration solutions are prepared in such a way that a concentration of weak base and a concentration of weak acid produce an equal but opposite change in pHi (i.e., pHa=pHb). The derived relationship for pHi determination is presented in Equation 10.11.
# Syringe A contained stained cells in bicarbonate-free production medium and syringe B production medium with 4.2 g/l NaHCO3 (corresponding to 25% CO2 at pH 7.2). Both media contained 20 mM HEPES and were adjusted to pH 7.2 at 37° C. Acid-load was achieved by pressing bicarbonate-containing medium from syringe B into syringe A. A 5 ml syringe was pre-loaded with 22 μl of SNARF-1 AM (2 mM stock solution; Table 3). 1×10^6 cells, from the exponential phase, were harvested and washed once with 4 ml medium without bicarbonate. After which, the cell suspension was sucked (without air bubbles) into the pre-loaded fluorescence dye syringe, which was them closed with the Luer-stopper and gently mixed. After a 25 min. period of incubation at 37° C. in the dark, with regularly mixing to avoid cell settling, followed dissolved gas and flow cytometric analysis. Three measurements of loaded cells in bicarbonate-free medium were made before acidification of cells cytoplasm. Afterwards, the syringe B was connected to syringe A and the double volume of NaHCO3-containing medium was added. The syringe B was discarded, syringe A was closed and after short mixing, the acid-loaded cells were analyzed by flow cytometry. Additionally, some samples were measured with the blood gas analyzer to determine the content of CO2 in medium during the experiment.
# To test if the re-alkalinization effect was due to the hCAII-overexpression, the hCAII inhibitor ethoxyzolamide (ACTZ) was used. […]
# [2] = test system: control cell line in HyQ medium (Control HyQ, non-transfected CHO cell line); experiment: Re-alkalinization experiment (pHi recovery after CO2 acid load, flow cytometry) in control cell line; type: cell-based, Chinese Hamster
# Procedure: To examine the effect of hCAII expression on the cell internal pH value (pHi), the control cell line in HyQ medium and clone E11 were submitted to a short term acidification. This was achieved by mixing the cells with a CO2-containing solution and measuring the subsequent pHi recovery. […] A replicate of this experiment was performed with the carbonic anhydrase II inhibitor ethoxyzolamide and the results are presented in FIGS. 7(A) and 7(B). […] The following Table summarizes some of the characteristics of the tested cell lines.
# pHi measurements were carried out by flow cytometry with the available pHi fluorescent indicator, Carboxy SNARF-1 AM (Molecular Probes Inc.). This dye is an acetoxymethyl (AM) ester that enter the cells readily and is hydrolyzed by non-specific esterases to yield the free fluorescent dye. SNARF-1 AM is very sensitive to pHi changes within the physiological range. It is excited between 488 nm and 530 nm and the fluorescence emission is monitored at two wavelengths, typically about 580 nm (FL2-H) and 640 nm (FL3-H). This is particularly interesting as the fluorescence emission wavelength ratio can be calculated foe a more accurate determination of the pHi. With the use of this ratiometric technique, a number of fluorescence measurement artifacts are eliminated, such as photobleaching, cell thickness and leakage and non-uniform loading of the indicator (SNARF® pH indicators, Product information, 2003, Molecular Probes Inc.). Herein the Pseudo-Null calibration method was used. […] A simplification can be considered if the calibration solutions are prepared in such a way that a concentration of weak base and a concentration of weak acid produce an equal but opposite change in pHi (i.e., pHa=pHb). The derived relationship for pHi determination is presented in Equation 10.11.
# The regulation of the pHi was studied by flow cytometric analysis during intracellular acidification with bicarbonate. The kinetic of the transporters were examined. This test was made at physiological conditions. Therefore medium was used instead of buffer to account for influences of other medium components. To eliminate the activity of other cellular pHi-regulation systems, cells were pre-incubated in bicarbonate-free medium buffered with HEPES. […] This system consisting of two disposable 5 ml Luer-Lock syringes (B. Braun AG, Melsungen, Germany) connected by a short tubing and two Luer tubing connectors (Rotilabo®). These Luer connectors permitted the rapid and easy connection/disconnection of the 2 syringes.
# Syringe A contained stained cells in bicarbonate-free production medium and syringe B production medium with 4.2 g/l NaHCO3 (corresponding to […] at pH 7.2). Both media contained 20 mM HEPES and were adjusted to pH 7.2 at 37° C. Acid-load was achieved by pressing bicarbonate-containing medium from syringe B into syringe A. A 5 ml syringe was pre-loaded with 22 μl of SNARF-1 AM (2 mM stock solution; Table 3). 1×10^6 cells, from the exponential phase, were harvested and washed once with 4 ml medium without bicarbonate. After which, the cell suspension was sucked (without air bubbles) into the pre-loaded fluorescence dye syringe, which was them closed with the Luer-stopper and gently mixed. […] The syringe B was discarded, syringe A was closed and after short mixing, the acid-loaded cells were analyzed by flow cytometry. Additionally, some samples were measured with the blood gas analyzer to determine the content of CO2 in medium during the experiment. […]
compound,measurement,setting,value
"CCOc1ccc2nc(S(N)(=O)=O)sc2c1 [ACTZ, ethoxyzolamide]",Steady state pHi,"[1]; Clone E11 + ACTZ, 100 μM ethoxyzolamide in media, pHe 7.11",6.87
same,pHi (acid load),"[1]; Clone E11 + ACTZ, 100 μM ethoxyzolamide, about 9% CO2 acid load",6.61
same,pHi/min (5 min),"[1]; Clone E11 + ACTZ, 100 μM ethoxyzolamide, initial recovery rate of first 5 min after acid load",0.057 pHi/min
same,decrease on the re-alkalinization rate,"[1]; clone E11, in the presence of the inhibitor",19%
same,time after exposure to CO2-containing medium at which steady state pHi was exceeded,"[1]; hCAII inhibited reaction, clone E11 (8 min. without inhibitor)",5 min.
same,Steady state pHi,"[2]; Control HyQ + ACTZ, 100 μM ethoxyzolamide in media, pHe 7.10",7.02
same,pHi (acid load),"[2]; Control HyQ + ACTZ, 100 μM ethoxyzolamide, about 9% CO2 acid load",6.84
same,pHi/min (5 min),"[2]; Control HyQ + ACTZ, 100 μM ethoxyzolamide, initial recovery rate of first 5 min after acid load",0.049 pHi/min
same,decrease on the re-alkalinization rate,"[2]; control cell line in HyQ medium, in the presence of the inhibitor",30%
same,time after exposure to CO2-containing medium at which steady state pHi was exceeded,"[2]; hCAII inhibited reaction, control cell line in HyQ medium (11 min. without inhibitor)",5 min.
